Patent US20190350890A1, “COMPOSITION FOR PREVENTING OR TREATING HEPATITIS CONTAINING MONOACETYL DIACYLGLYCEROL COMPOUND” (ENZYCHEM LIFESCIENCES CORPORATION, priority 2016, published 2019)

Experiments:
[1] = test system: hepatitis induced by concanavalin A; assay: Plasma cytokine analysis (ELISA) in Con A-induced hepatitis mice; assay type: in vivo, Balb/c mice; settings: Con A 20 mg/kg BW i.v., PLAG oral 100 mg/kg BW, blood 18 hours after Con A
Protocol: (§1) In order to confirm the preventive and therapeutic effects of hepatitis by 1-palmitoyl-2-linoleoyl-3-acetylglycerol (EC-18 or PLAG), the experiment was performed using an attenuation model of hepatitis induced by concanavalin A (hereinafter, referred to as ConA). As an experimental model, 10-week-old Balb/c mice (Koatech, Korea) were maintained under specific pathogen free (SPF) environment and used, and PLAG and PLG (ENZYCHEM Lifesciences, Korea) were prepared before or after in vivo or in vitro treatment. In addition, Hep3B, HepG2, EL-4 and HL-60 cell lines (American Type Culture Collection, ATCC) were incubated under 5% CO2 and a temperature of 37° C. The values in the comparison between groups performed in vivo were analyzed using one analysis method of the analysis of variance (ANOVA), and the values in the comparison of two experimental groups performed in vitro were analyzed using independent student's t test. Statistical significance was assumed to be p<0.05.
(§2) Mice were randomly divided into three groups: control group, Con A-treated group, and PLAG-pretreated group. The Con A and PLAG were all dissolved in PBS (phosphate buffer saline) and used. PBS or PLAG was orally administered to the mice, and after 2 hours, 20 mg/kg BW of Con A was intravenously injected into each of the Con A-treated group and the PLAG-pretreated group. Thereafter, PLAG was orally administered to mice at a dose of 100 mg/kg BW. Here, BW means body weight.
(§3) Blood samples were obtained from cardiac punctures 18 hours after administration of Con A in the mice of Example and centrifuged at 3,000 rpm for 10 minutes. For the measurement of cytokines in liver tissue ligate liquids, the animals were sacrificed and the liver was washed with PBS. The liver was homogenized and filtered using a 70 μm mesh cell strainer (BD Falcon cell strainer, BD Biosciences, Bedford, Mass.) in PBS. The supernatant was also collected by centrifugation at a rate of 2,000 rpm for 5 minutes. The lower cell pellet was resuspended in PBS and analyzed for complete blood cell count (CBC). Plasma samples and supernatants of liver lysate were maintained at minus 20° C. until cytokines were measured. The concentrations of IL-6, IL-10, IL-4, MIP-2 and IFNγ were detected using Set ELISA.

[2] = test system: HL-60 cells; assay: Neutrophil adsorption analysis on fibronectin; assay type: cell-based; settings: 100, 10, and 1 ug/mL of PLAG; 10 ng/ml of IL-4; WST-1 assay and cell number
Text: In order to determine the effect of PLAG on neutrophil adsorption of fibronectin, 24-well tissue culture plates were coated with fibronectin as in previous studies (Wang Y H, Wang W Y, Liao J F, Chen C F, Hou Y C, Liou K T, Chou Y C, et al. Prevention of macrophage adhesion molecule-1 (Mac-1)-dependent neutrophil firm adhesion by taxifolin through impairment of protein kinase-dependent NADPH oxidase activation and antagonism of G protein-mediated calcium influx. Biochem Pharmacol 2004; 67:2251-2262.). The plates were incubated with 25 ug/ml of fibronectin at 37° C. for 2 hours. The unbounded protein was removed by washing, neutrophils were pre-treated with PLAG 2 hours before the experiment, and neutrophil activity was performed with IL-4 for 4 hours. Non-adsorbed neutrophils were eluted by aspiration and washed twice with PBS. Attached neutrophils were determined by calculating the number of cells at the bottom of each well using a homocytometer. The remaining adsorbed cells were stored in an incubator for 18 hours, at which time the cells were exposed to WST-1 reagent (Roche Applied Science) for spectrometric evaluation.

[3] = test system: Hep3B cells; assay: WST assay, cytotoxicity in Hep3B cells; assay type: cell-based; settings: 24 hours of incubation, PLAG 1,000 ug/mL or greater
Protocol: (§4) FIG. 7 is a graph showing the results of WST assay of […] depending on the dose of PLAG when the composition of the present invention was administered, and FIG. 8 is a graph showing the inhibitory effect of IL-4-induced STAT6 activity and related signaling mechanism depending on the dose of PLAG when the composition of the present invention was administered. […] HepG2 and Hep3B were used as liver cells, and HL-60 was used as neutrophil cells. Cytotoxicity of EC-18 in liver cells and leukocytes was confirmed by WST assay. Survival of Hep3B and HL-60 cells was not affected during 24 hours of incubation with PLAG each having a concentration of 1,000 ug/mL or greater (see FIG. 7). Based on the results of the WST assay, 100, 10, and 1 ug/mL of PLAG were used for the cells. The activities of PKC-ξ/λ, JAK1 and STAT6 played an important role in ConA-induced hepatitis, and these kinases were increased by IL-4. […] Therefore, it can be seen that PLAG can effectively control IL-4-induced hepatitis by alleviating PKC-ξ/λ activity.

[4] = test system: hepatitis induced by concanavalin A; assay: Liver tissue cytokine analysis (ELISA, RT-PCR) in Con A-induced hepatitis mice; assay type: in vivo, Balb/c mice
Protocol: as §1, §2, §3
(§5) Total RNA was isolated from the liver homogenate with TRIzol reagent (Incitrogen, Carlsbad, Calif.). HL-60 cells were plated in 12-well plates (1×10^6/well) and treated in the same manner as in Experimental Example 4. cDNA was synthesized from total cellular RNA using M-MLV reverse transcriptase and oligo-dT (Promega, Madison, Wis.).
(§6) The amount of cDNA amplification of the reaction samples was confirmed by 2% agarose gel (Roche Applied Science, Salt Lake City, Utah) electrophoresis.

[5] = test system: PKCα/β; assay: Western blot assay, phospho-PKC isotypes in HL-60 cells: PKCα/β; assay type: cell-based; settings: IL-4 stimulation
Protocol: (§7) HL-60 cells were plated in 12-well plates (1×10^6/well) and treated as described above. Total protein extracts were immunoblotted with phospho-PKC homologous proteins (δ, θ, ξ/λ, α/β) (Cell Signaling) and GAPDH Abs (Santa Cruz Biotechnology Inc., CA). Detection was performed using Immobilon Western Chemiluminescent HRP Substrate (Millipore Corporation, Billerica, Mass.).

[6] = test system: PKC-ξ/λ; assay: Western blot assay, IL-4-induced PKC phosphorylation; assay type: cell-based; settings: dose-dependent; 0.1, 1, 10, 100 ug/mL, 2 hours before IL-4 for 1 hour
Protocol: (§8) Hep3B cells were plated in 12 well plates (2.5×10^5 cells/well) and treated with PLAG at various concentrations (0.1, 1, 10, 100 ug/mL), and after 2 hours, activated with IL-4 for 1 hour. Whole protein extracts were immunoblotted with phospho-STAT6, STAT6, phospho-JAK1 and phosphor-PKCξ/λ Abs (cell signaling).
as §7

[7] = test system: PKCθ; assay: Western blot assay, phospho-PKC isotypes in HL-60 cells: PKCθ; assay type: cell-based; settings: IL-4 stimulation
Protocol: as §7

[8] = test system: PKCδ; assay: Western blot assay, phospho-PKC isotypes in HL-60 cells: PKCδ; assay type: cell-based; settings: IL-4 stimulation
Protocol: as §7

[9] = test system: HL-60 cells; assay: WST assay, cytotoxicity in HL-60 cells; assay type: cell-based; settings: 24 hours of incubation, PLAG 1,000 ug/mL or greater
Protocol: as §4

[10] = test system: hepatitis induced by concanavalin A; assay: Histological analysis of liver (hematoxylin-eosin, anti-neutrophil antibody staining); assay type: in vivo, Balb/c mice
Protocol: as §1, §2
The site of liver was collected from a mouse 8 hours after administration of Con A to the mouse of Example 1. The site of liver was fixed in 10% neutral buffered formalin, embedded in paraffin and cut to a thickness of 5 um. After removing the paraffin and rehydration, the flakes were stained with hematoxylin and eosin. In addition, for identification of neutrophils, the site of liver was stained with anti-mouse neutrophil antibody. All samples were evaluated histologically under a Leica (Leica, Wetzlar, Germany) optical microscope, and digital images were taken at ×200 magnification.

[11] = test system: HL-60 cells; assay: RT-PCR analysis of IL-8 and VCAM-1 expression in IL-4-stimulated HL-60 cells; assay type: cell-based, human; settings: HL-60 cells stimulated by IL-4, RT-PCR, dose-dependent
Protocol: as §5, §6

[12] = test system: STAT6; assay: Western blot assay, IL-4-induced STAT6 phosphorylation in Hep3B cells; assay type: cell-based; settings: for phosphorylation of STAT6, comparison of PLAG and PLG: Hep3B cells, anti-phospho-STAT6 Western blot
Protocol: as §8

[13] = test system: STAT6; assay: Luciferase reporter gene analysis, STAT6 transcriptional activity in HepG2 and Hep3B cells; assay type: cell-based; settings: 10 and 100 ug/ml of PLAG; 10 ng/ml IL-4 for 6 hours
Protocol: HepG2 and Hep3B cells were transfected into reporter luciferase plasmids containing four pairs of STAT6 binding sites (p4xSTAT6-Luc2P; Addgene, Cambridge, Mass.), and the reporter vector was transfected into the Attractene reagent and cell line. For the activity of STAT6 reporter vectors, 10 ng/ml of IL-4 was treated with cells for 6 hours, and the luciferase activity was measured by a luminometer using a luciferase assay system. The luciferase activity of each sample was normalized to those corresponding to the PLAG transduced samples.

[14] = test system: hepatitis induced by concanavalin A; assay: Hematological analysis (CBC) of whole blood and liver samples; assay type: in vivo, Balb/c mice; settings: PLAG additionally administered
Protocol: as §1, with “Statistical significance was assumed to be p<0.05.” left out
Whole blood and liver samples were collected from the mice of Example 1 18 hours after administration of Con A. The cleaved liver collected from the mouse was homogenized as described in Experimental Example 1. Complete blood count (CBC) analysis included whole white blood cell quantification, part of neutrophils and lymphocytes of whole white blood cells, and hematology analysis was performed using Mindray BC 5300 (Shenzhen Mindray Bio-medical Electronics, China).

[15] = ConA-administered mice, PLAG further administered, vs ConA group
[16] = RT-PCR, ConA-induced liver tissue

CCCCC/C=C\C/C=C\CCCCCCCC(=O)OC(COC(C)=O)COC(=O)CCCCCCCCCCCCCCC (racemic) [PLAG, 1-palmitoyl-2-linoleoyl-3-acetyl-rac-glycerol]
IL-4 in mouse plasma ([1]; vs Con A group): decreased | IL-6 in mouse plasma ([1]; vs Con A group): decreased | IL-10 in mouse plasma ([1]; vs Con A group): decreased | MIP-2 in mouse plasma ([1]; vs Con A group): decreased | concentration of IFNγ in plasma ([1]; vs mice not treated with PLAG): not significantly reduced | adsorption of HL-60 to coated fibronectin [2]: significantly reduced | survival of Hep3B cells [3]: not affected | expression of IL-4 (protein and mRNA) in liver tissue [4, 15]: significantly reduced | expression of MIP-2 (protein and mRNA) in liver tissue [4, 15]: significantly reduced | expression of CXCR4 mRNA in liver tissue [4, 16]: down-regulates | expression of adsorbed molecules ICAM-1 and VCAM in liver tissue [4, 16]: does not affect | relaxation of PKCα/β activity [5]: did not affect | phosphorylation of PKC induced by IL-4 [6]: considerably alleviated | relaxation of the activity of PKCθ [7]: affects the relaxation | relaxation of the activity of PKCδ [8]: affects the relaxation | survival of HL-60 cells [9]: not affected | neutrophils in liver enhanced by stimulation with ConA ([10]; anti-neutrophil antibody staining, liver 8 hours after Con A): effectively alleviated | pathological changes of liver (hepatocyte damage, neutrophil infiltration, necrotic foci) ([10]; hematoxylin-eosin staining, PLAG 100 mg/kg, 8 hours after ConA i.v.): markedly reduced | liver cell damage ([10]; liver 8 hours after Con A, immunohistological staining, vs ConA-treated liver tissue): hardly damaged | expression of IL-8 [11]: effectively suppressed | expression of VCAM-1 [11]: effectively suppressed | phosphorylation of STAT6, comparison of PLAG and PLG [12]: significantly reduced | phosphorylation of STAT6 induced by IL-4 ([12]; dose-dependent, 0.1, 1, 10, 100 ug/mL, 2 hours before IL-4 for 1 hour): considerably alleviated | STAT6 transcriptional activity [13]: effectively prevented | circulating neutrophils in blood ([14]; CBC 18 hours after Con A): significantly increased | number of neutrophils present in the liver ([14]; CBC of liver homogenate 18 hours after Con A): significantly reduced

CCCCC/C=C\C/C=C\CCCCCCCC(=O)OC(CO)COC(=O)CCCCCCCCCCCCCCC (stereo not drawn) [PLG, reference compound]
phosphorylation of STAT6, comparison of PLAG and PLG [12]: not altered
